These are literature values, as cited in patent publication US8629099B2, “Ophthalmic compositions comprising a dipeptide” (Bausch & Lomb Incorporated, priority 2008, dated 2014).

Each structure is given as a SMILES string.

The conditions of this data set: lower pKa given in text.

With `NCC(=O)O` [glycine], the “pKa values (first value)” value is given as 2.4.
